Measured values reported in patent publication US7612064B2, “Sulfopyrroles” (Takeda Pharmaceutical Company Limited, priority 2003, dated 2009).
pIC50: −log10 of the molar value.

Columns and labels:
[1] = Hoechst 33342 nuclear staining; assay type: cell-based; details: for Hoechst 33342 nuclear staining score, HeLa: HeLa cells; for Hoechst 33342 nuclear staining score, Jurkat: Jurkat cells; for Hoechst 33342 nuclear staining score, H460: H460 cells; for Hoechst 33342 nuclear staining score, Jily: Jily cells; for Hoechst 33342 nuclear staining score, MRC5: MRC5 cells;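 for all read-outs here: apoptotic nuclei scored 0 none 1 weak under 50% of cells 2 strong over 50% of cells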
Description: This assay is performed in 96 well tissue culture plates. Appropriate number of cells (adherent cells: 3-5*10^3, suspension cells: 8-10*10^3) are being seeded out in 80 μl complete medium. Adherent cells are incubated for 24 h for proper spreading out before addition of test compounds while suspension cells are immediately treated with test compounds after seeding out. The test compounds are added in 20 μl complete medium containing max 5% DMSO. […] […] The assay plates are then further incubated for 30 min and subsequently analyzed with a standard inverted fluorescence microscope.
The readout allows the determination of the fraction of apoptotic nuclei as well as other morphological criteria specific for apoptosis as a function of the treatment. The following scores are used: 0 relating to no activity, 1 relating to weak activity comprising less than 50% of the cells and score 2 relating to strong activity comprising more than 50% of the cells.

HeLa = test: MTS proliferation assay; assay type: cell-based, human; details: 72 h
Description: (§1) The assay is performed in 96 well tissue culture plates. […] The test compounds are added in 20 μl complete medium containing max 5% DMSO. The final compound concentrations in the assays are 10 μM, 3 μM, 1 μM and 0.3 μM, respectively. The assay plates are incubated for 72 h at culture conditions. The MTS reagent is prepared according to the manufacturer's protocol (Promega G1111). 20 μl MTS reagent are added to each well, the assay plates are quickly spun and incubated for another 3 h at culture conditions. Subsequently, the plates are shortly shacked and absorption measured with a microplate-reader at 492 nm.

Jurkat = test: MTS proliferation assay; assay type: cell-based, human; details: 72 h
Description: as §1

MRC5 = test: MTS proliferation assay; assay type: cell-based; details: MRC5, 72 h
Description: as §1

[2] = conc 0.1 (final concentrations in μM), 24 h or 48 h incubation
[3] = conc 0.3 (final concentrations in μM), 24 h or 48 h incubation
[4] = conc 1 (final concentrations in μM), 24 h or 48 h incubation
[5] = conc 3 (final concentrations in μM), 24 h or 48 h incubation
[6] = conc 10 (final concentrations in μM), 24 h or 48 h incubation

## Cc1ccc(S(=O)(=O)n2cc(CN(C)C3CCN(C)CC3)cc2-c2ccc3c(c2)OCO3)cc1 [Example 26]
[1]; [2]
  Hoechst 33342 nuclear staining score, HeLa: 0
  Hoechst 33342 nuclear staining score, Jurkat: 0
[1]; [3]
  Hoechst 33342 nuclear staining score, HeLa: 0
  Hoechst 33342 nuclear staining score, Jurkat: 0
[1]; [4]
  Hoechst 33342 nuclear staining score, HeLa: 0
  Hoechst 33342 nuclear staining score, Jurkat: 0
[1]; [5]
  Hoechst 33342 nuclear staining score, HeLa: 0
  Hoechst 33342 nuclear staining score, Jurkat: 0
HeLa
  pIC50: < 6.00
Jurkat
  pIC50: < 6.00
MRC5
  pIC50: < 6.00

## Cc1ccc(S(=O)(=O)n2cc(-c3ccc(C#N)cc3)cc2-c2ccc3c(c2)OCO3)cc1 [Example 48]
[1]; [2]
  Hoechst 33342 nuclear staining score, HeLa: 0
  Hoechst 33342 nuclear staining score, Jurkat: 0
[1]; [3]
  Hoechst 33342 nuclear staining score, HeLa: 0
  Hoechst 33342 nuclear staining score, Jurkat: 0
[1]; [4]
  Hoechst 33342 nuclear staining score, HeLa: 0
  Hoechst 33342 nuclear staining score, Jurkat: 0
[1]; [5]
  Hoechst 33342 nuclear staining score, HeLa: 0
  Hoechst 33342 nuclear staining score, Jurkat: 0
HeLa
  pIC50: < 6.00
Jurkat
  pIC50: < 6.00
MRC5
  pIC50: < 6.00

## COc1cc(-c2cc(-c3cncc(C(=O)NCCC4CCCN4C)c3)cn2S(=O)(=O)c2ccc(C)cc2)cc(OC)c1OC.Cl (stereo not drawn) [Example 62]
[1]; conc 0.1
  Hoechst 33342 nuclear staining score, H460: 0
  Hoechst 33342 nuclear staining score, HeLa: 0
  Hoechst 33342 nuclear staining score, Jily: 0
  Hoechst 33342 nuclear staining score, Jurkat: 0
  Hoechst 33342 nuclear staining score, MRC5: 0
  Hoechst 33342 nuclear staining score, PBLs: 0
[1]; conc 0.3
  Hoechst 33342 nuclear staining score, H460: 0
  Hoechst 33342 nuclear staining score, HeLa: 0
  Hoechst 33342 nuclear staining score, Jily: 0
  Hoechst 33342 nuclear staining score, Jurkat: 0
  Hoechst 33342 nuclear staining score, MRC5: 0
  Hoechst 33342 nuclear staining score, PBLs: 0
[1]; conc 1
  Hoechst 33342 nuclear staining score, H460: 0
  Hoechst 33342 nuclear staining score, HeLa: 0
  Hoechst 33342 nuclear staining score, Jily: 0
  Hoechst 33342 nuclear staining score, Jurkat: 0
  Hoechst 33342 nuclear staining score, MRC5: 0
  Hoechst 33342 nuclear staining score, PBLs: 0
[1]; conc 3
  Hoechst 33342 nuclear staining score, H460: 0
  Hoechst 33342 nuclear staining score, HeLa: 0
  Hoechst 33342 nuclear staining score, Jily: 0
  Hoechst 33342 nuclear staining score, Jurkat: 2 (strong activity comprising more than 50% of the cells)
  Hoechst 33342 nuclear staining score, MRC5: 0
  Hoechst 33342 nuclear staining score, PBLs: 0
HeLa
  pIC50: < 6.00
Jurkat
  pIC50: < 6.00
MRC5
  pIC50: < 6.00

## CCCCOc1ccc(S(=O)(=O)n2cc(-c3cccnc3)cc2-c2cc(OC)c(OC)c(OC)c2)cc1 [Example 78]
[1]; conc 0.1
  Hoechst 33342 nuclear staining score, H460: 0
  Hoechst 33342 nuclear staining score, HeLa: 0
  Hoechst 33342 nuclear staining score, Jily: 0
  Hoechst 33342 nuclear staining score, Jurkat: 0
  Hoechst 33342 nuclear staining score, MRC5: 0
  Hoechst 33342 nuclear staining score, PBLs: 0
[1]; conc 0.3
  Hoechst 33342 nuclear staining score, H460: 0
  Hoechst 33342 nuclear staining score, HeLa: 0
  Hoechst 33342 nuclear staining score, Jily: 0
  Hoechst 33342 nuclear staining score, Jurkat: 0
  Hoechst 33342 nuclear staining score, MRC5: 0
  Hoechst 33342 nuclear staining score, PBLs: 0
[1]; conc 1
  Hoechst 33342 nuclear staining score, H460: 0
  Hoechst 33342 nuclear staining score, HeLa: 0
  Hoechst 33342 nuclear staining score, Jily: 0
  Hoechst 33342 nuclear staining score, Jurkat: 0
  Hoechst 33342 nuclear staining score, MRC5: 0
  Hoechst 33342 nuclear staining score, PBLs: 0
[1]; conc 3
  Hoechst 33342 nuclear staining score, H460: 0
  Hoechst 33342 nuclear staining score, HeLa: 0
  Hoechst 33342 nuclear staining score, Jily: 0
  Hoechst 33342 nuclear staining score, Jurkat: 0
  Hoechst 33342 nuclear staining score, MRC5: 0
  Hoechst 33342 nuclear staining score, PBLs: 0
HeLa
  pIC50: < 6.00
Jurkat
  pIC50: < 6.00
MRC5
  pIC50: < 6.00

## Cc1ccc(S(=O)(=O)n2cc(CNc3ccc(-n4ccnc4)cc3)cc2-c2ccc3c(c2)OCO3)cc1 [Example 40]
[1]; [3]
  Hoechst 33342 nuclear staining score, HeLa: 0
  Hoechst 33342 nuclear staining score, Jurkat: 0
[1]; [4]
  Hoechst 33342 nuclear staining score, HeLa: 0
  Hoechst 33342 nuclear staining score, Jurkat: 0
[1]; [5]
  Hoechst 33342 nuclear staining score, HeLa: 0
  Hoechst 33342 nuclear staining score, Jurkat: 0
[1]; [6]
  Hoechst 33342 nuclear staining score, HeLa: 0
  Hoechst 33342 nuclear staining score, Jurkat: 0
HeLa
  pIC50: < 6.00
Jurkat
  pIC50: < 6.00
MRC5
  pIC50: < 6.00

## Cc1ccc(S(=O)(=O)n2cc(-c3cncnc3)cc2-c2ccc3c(c2)OCO3)cc1 [Example 46]
[1]; [3]
  Hoechst 33342 nuclear staining score, HeLa: 0
  Hoechst 33342 nuclear staining score, Jurkat: 0
[1]; [4]
  Hoechst 33342 nuclear staining score, HeLa: 0
  Hoechst 33342 nuclear staining score, Jurkat: 0
[1]; [5]
  Hoechst 33342 nuclear staining score, HeLa: 0
  Hoechst 33342 nuclear staining score, Jurkat: 0
[1]; [6]
  Hoechst 33342 nuclear staining score, HeLa: 0
  Hoechst 33342 nuclear staining score, Jurkat: 0
HeLa
  pIC50: < 6.00
Jurkat
  pIC50: < 6.00
MRC5
  pIC50: < 6.00

## Cc1ccc(S(=O)(=O)n2cc(CNc3ccc(N4CCOCC4)cc3N3CCOCC3)cc2-c2ccc3c(c2)OCO3)cc1 [Example 39]
[1]; [3]
  Hoechst 33342 nuclear staining score, HeLa: 0
  Hoechst 33342 nuclear staining score, Jurkat: 0
[1]; [4]
  Hoechst 33342 nuclear staining score, HeLa: 0
  Hoechst 33342 nuclear staining score, Jurkat: 0
[1]; [5]
  Hoechst 33342 nuclear staining score, HeLa: 0
  Hoechst 33342 nuclear staining score, Jurkat: 0
[1]; [6]
  Hoechst 33342 nuclear staining score, HeLa: 0
  Hoechst 33342 nuclear staining score, Jurkat: 0
HeLa
  pIC50: < 6.00
Jurkat
  pIC50: < 6.00
MRC5
  pIC50: < 6.00

## Cc1ccc(S(=O)(=O)n2cc(CNCCN3CCN(Cc4ccccc4)CC3)cc2-c2ccc3c(c2)OCO3)cc1 [Example 16]
[1]; [2]
  Hoechst 33342 nuclear staining score, HeLa: 0
  Hoechst 33342 nuclear staining score, Jurkat: 0
[1]; [3]
  Hoechst 33342 nuclear staining score, HeLa: 0
  Hoechst 33342 nuclear staining score, Jurkat: 0
[1]; [4]
  Hoechst 33342 nuclear staining score, HeLa: 0
  Hoechst 33342 nuclear staining score, Jurkat: 0
[1]; [5]
  Hoechst 33342 nuclear staining score, HeLa: 1 (weak activity comprising less than 50% of the cells)
  Hoechst 33342 nuclear staining score, Jurkat: 0
HeLa
  pIC50: < 6.00
Jurkat
  pIC50: < 6.00
MRC5
  pIC50: < 6.00

## CCN1CCN(c2ccc(NCc3cc(-c4ccc5c(c4)OCO5)n(S(=O)(=O)c4ccc(C)cc4)c3)cc2)CC1 [Example 37]
[1]; [3]
  Hoechst 33342 nuclear staining score, HeLa: 0
  Hoechst 33342 nuclear staining score, Jurkat: 0
[1]; [4]
  Hoechst 33342 nuclear staining score, HeLa: 0
  Hoechst 33342 nuclear staining score, Jurkat: 0
[1]; [5]
  Hoechst 33342 nuclear staining score, HeLa: 0
  Hoechst 33342 nuclear staining score, Jurkat: 0
[1]; [6]
  Hoechst 33342 nuclear staining score, HeLa: 0
  Hoechst 33342 nuclear staining score, Jurkat: 0
HeLa
  pIC50: < 6.00
Jurkat
  pIC50: < 6.00
MRC5
  pIC50: < 6.00

## Cc1ccc(S(=O)(=O)n2cc(CNCCCN3CCN(Cc4ccccc4)CC3)cc2-c2ccc3c(c2)OCO3)cc1 [Example 23]
[1]; [2]
  Hoechst 33342 nuclear staining score, HeLa: 0
  Hoechst 33342 nuclear staining score, Jurkat: 0
[1]; [3]
  Hoechst 33342 nuclear staining score, HeLa: 0
  Hoechst 33342 nuclear staining score, Jurkat: 0
[1]; [4]
  Hoechst 33342 nuclear staining score, HeLa: 0
  Hoechst 33342 nuclear staining score, Jurkat: 0
[1]; [5]
  Hoechst 33342 nuclear staining score, HeLa: 0
  Hoechst 33342 nuclear staining score, Jurkat: 0
HeLa
  pIC50: < 6.00
Jurkat
  pIC50: < 6.00
MRC5
  pIC50: < 6.00

## Cc1ccc(S(=O)(=O)n2cc(-c3cccnc3)cc2-c2ccc3c(c2)OCO3)cc1 [Example 49]
[1]; [2]
  Hoechst 33342 nuclear staining score, HeLa: 0
  Hoechst 33342 nuclear staining score, Jurkat: 0
[1]; [3]
  Hoechst 33342 nuclear staining score, HeLa: 0
  Hoechst 33342 nuclear staining score, Jurkat: 0
[1]; [4]
  Hoechst 33342 nuclear staining score, HeLa: 0
  Hoechst 33342 nuclear staining score, Jurkat: 0
[1]; [5]
  Hoechst 33342 nuclear staining score, HeLa: 0
  Hoechst 33342 nuclear staining score, Jurkat: 0
HeLa
  pIC50: < 6.00
Jurkat
  pIC50: < 6.00
MRC5
  pIC50: < 6.00
